Experiments:
[1] = Tail bleeding model (bleeding time); type: in vivo, Sprague-Dawley rats; conditions: SEQ ID NO:2 5, 20, 40 mg/kg i.v. 5 min before, Rivaroxaban 10 mg/kg PO 1 hour before, Warfarin 0.5 mg/kg IV
Method: A total of 36 Sprague-Dawley male and female rats were utilized and divided into six groups comprising of 6 animals per group. Animal handling was performed according to guidelines of the National Institute of Health and the Association for Assessment and Accreditation of Laboratory Animal Care. Animals were fed ad libitum a commercial rodent diet (Teklad Certified Global 18% Protein Diet cat #: 2018SC). Animals had free access to autoclaved and acidified drinking water (pH between 2.5 and 3.5) obtained from the municipality supply. Animals were housed under standard laboratory conditions, air conditioned and filtered with adequate fresh air supply. Animals were kept in a climate controlled environment.
SEQ ID NO:2 (Biospring) (100 mg) was dissolved in 5 ml saline to form a stock solution of 20 mg/ml. Vehicle (saline) was provided by Pharmaseed as ready to use for i.v. administration. Rivaroxaban (Bayer, Pharmaseed Ltd) dosing solution was diluted at 10 mg/kg (Group 2M). Warfarin (Ceriliant, Pharmaseed Ltd) was diluted at 0.5 mg/kg (Group 3M). Both Rivaroxaban and Warfarin are clinical standards with anticoagulation activity. To obtain SEQ ID NO:2 dosing solution (2.5 mg/ml) for dose level of 5 mg/kg and dose volume of 2 ml/kg for i.v. injection, 0.375 ml of the above 20 mg/ml stock solution was diluted with 2.625 ml of saline (Group 4M). To obtain SEQ ID NO:2 dosing solution (10 mg/ml) for dose level of 20 mg/kg and dose volume of 2 ml/kg for i.v. injection, 1.5 ml of the above 20 mg/ml stock solution was diluted with 1.5 ml saline (Group 5M). To obtain SEQ ID NO:2 dosing solution (20 mg/ml) for dose level of 40 mg/kg and dose volume of 2 ml/kg for i.v. injection, the above 20 mg/ml stock used (Group 6).
Rats were intravenously injected five minutes before bleeding time assay. […] Three treated groups received SEQ ID NO:2 at dose levels of 5, 20 and 40 mg/kg saline solution. In each gender, control groups received saline Vehicle. A positive control group received Rivaroxaban (10 mg/kg). Rivaroxaban was administered by oral gavage 1 hour before bleeding time assay. A second positive control groups received Warfarin (0.5 mg/kg).
Male and female rats were anaesthetized by intraperitoneal injection of ketamine/xylazine. Bleeding time was monitored as described in Stupnisek et al. (2012), until blood flow stopped for a complete 30-sec interval or till the end of 30 min period. In deeply anaesthetized rats (placed in ventral position) the tail was transected with a surgical scalpel 2 mm from the tip (and submerged into a tube with 40 ml of saline at room temperature in vertical position) and the duration and amount of bleeding was measured to evaluate the hemostatic effect of the agents or saline administration. Following the completion of bleeding time evaluation, all rats were immediately sacrificed by CO2 asphyxiation.
Numerical results were given as means±standard errors. If applicable, statistical analysis was carried out using one-way ANOVA followed by Dunnett's Multiple Comparison post Test. A probability of 5% (p≤0.05) was regarded as significant.

[2] = Arteriovenous shunt model, thrombus weight; type: in vivo, Sprague-Dawley male rats; conditions: SEQ ID NO:2 33.3 mg/kg i.v. 5 min prior; Rivaroxaban 10 mg/kg p.o. 90 min prior; 15 min extracorporeal circulation
Method: This study was conducted at Shanghai WuXi AppTec Co., Ltd., and in accordance with WuXi IACUC standard animal procedures along with the IACUC guidelines that are in compliance with the Animal Welfare Act, the Guide for the Care and Use of Laboratory Animals, and the Office of Laboratory Animal Welfare (OLAW). Sprague-Dawley male rats with body weight ranging between 150-200 g (Vital River; Bejing, P.R. China) were fed ad libitum a rodent diet. Animals had free access to autoclaved and acidified drinking water. Animals were housed under standard laboratory conditions, air conditioned and filtered with adequate fresh air supply. Animals were kept in a climate controlled environment. Rivaroxaban (10 mg/kg) has been dissolved in water and stored at 4° C. 20 mg SEQ ID NO:2 (Biospring) was dissolved in 3 ml Saline, vortexed for 5 min., sonicated with a water bath ultrasonic for 1 minute to achieve 6.66 mg/ml SEQ ID NO:2. The animals were assigned to 3 dosing groups according to the body weight (see table 2). […] Extracorporeal circulation was maintained for 15 min, the thrombus weight formed on the thread was calculated by subtracting the average weight of the rough nylon thread. Significance of difference between control and treated groups was analyzed by performing analysis of variance (ANOVA) by EXCEL office software.

[3] = Activated partial thromboplastin time (APTT) in arteriovenous shunt model; type: in vivo, Sprague-Dawley male rats; conditions: SEQ ID NO:2 33.3 mg/kg i.v. 5 min prior; Rivaroxaban 10 mg/kg p.o. 90 min prior
[4] = Prothrombin time in arteriovenous shunt model; type: in vivo, Sprague-Dawley male rats; conditions: SEQ ID NO:2 33.3 mg/kg i.v. 5 min prior; Rivaroxaban 10 mg/kg p.o. 90 min prior
Method: FIG. 2: Anti-coagulant activity of SEQ ID NO:2 in Arteriovenous Shunt model. Male rats were intravenously injected with saline (Vehicle) or SEQ ID NO:2 solution, according to their body weight. Rivaroxaban was orally administered to the positive control group. 5 to 90 minutes after administration, rats were anesthetized with pentobarbital-na (50 mg/kg). The left jugular vein and the right carotid artery of anesthetized rats were connected with two catheters. The thrombus weight formed on the thread was calculated by subtracting the average weight of the rough nylon thread (A). Prothrombin times were measured (B) and Activated partial thromboplastin times (APTT) were analysed (C). Each bar represents the mean±SEM (n=8 for vehicle and rivaroxaban groups, n=3 for SEQ ID NO:2 group), *p<0.05, **p<0.01, ***p<0.001 vs Vehicle.
The animals were assigned to 3 dosing groups according to the body weight (see table 2). Vehicle treated animals were intravenously injected with saline 90 min prior to shunt assay. The positive control treated animals were orally given Rivaroxaban 10 mg/kg at 90 min prior to shunt assay. SEQ ID NO:2 was intravenously injected 5 min prior to shunt assay.

SMILES	group average bleeding time compared to matched vehicle group ([1]; female rats)	group average bleeding time compared to matched vehicle group ([1]; male rats)	thrombus weight, less than vehicle group [2] [%]	Activated Partial Thromboplastin Time (APTT) compared to vehicle group [3]	Prothrombin times compared to vehicle group [4]
CC(=O)CC(c1ccccc1)c1c(O)c2ccccc2oc1=O (stereo not shown) [Warfarin, reference compound]	increased significantly	increased significantly	–	–	–
O=C(NC[C@H]1CN(c2ccc(N3CCOCC3=O)cc2)C(=O)O1)c1ccc(Cl)s1 [Rivaroxaban, reference compound]	increased significantly	increased significantly	26.5	did not show any different	significantly prolonged

Reference: patent US11110115B2, “Nucleic acid molecule with anti-inflammatory and anti-coagulant and organ-protective properties” (APTAHEM AB, priority 2017, dated 2021)
